Results published in patent publication US20010033864A1, “Low dose entecavir formulation and use” (priority 2000, published 2001).

Legend:
hepatitis B virus [1] = test: 28-day randomized, double-blind, placebo-controlled, dose-escalating trial of safety and antiviral activity in chronic hepatitis B; type: in vivo, human; details: for mean log reduction in hepatitis B virus DNA viral levels in the blood: human subjects with chronic HBV infection, day 28
Description: The safety and antiviral activity of entecavir given for 28 days to human subjects with chronic hepatitis B virus infection was studied in a randomized, double-blind, placebo-controlled, dose-escalating trial. […] The mean log reduction in hepatitis B virus DNA viral levels in the blood at day 28 were 2.21, 2.25, 2.81, and 2.42 for the 0.05, 0.1, 0.5 and 1.0 mg once daily doses of entecavir, respectively.

hepatitis B virus [2] = test: 24-week randomized, double-blind, lamivudine-controlled trial of safety and antiviral activity in chronic hepatitis B; type: in vivo, human; details: 24 weeks
Description: The safety and antiviral activity of three doses of entecavir (0.01 mg, 0.1 mg and 0.5 mg) given once daily for 24 weeks were studies in adults with chronic hepatitis B in a randomized, double-blind, lamivudine (100 mg QD) controlled trial.

C=C1C(CO)C(O)C[C@@H]1n1cnc2c(=O)[nH]c(N)nc21 (stereo partly drawn) [Entecavir, [1S-(1α,3α, 4β)]-2-amino-1,9-dihydro-9-[4-hydroxy-3-(hydroxymethyl)-2-methylenecyclopentyl]-6H-purin-6-one]
safety / tolerability (hepatitis B virus [1]; 0.05-1.0 mg once daily for 28 days, human subjects): well tolerated
antiviral activity (hepatitis B virus [1]; all doses tested (0.05, 0.1, 0.5, 1.0 mg once daily), 28 days): potent antiviral activity
mean log reduction in hepatitis B virus DNA viral levels in the blood (hepatitis B virus [1]; 0.05 mg once daily): 2.21 log
mean log reduction in hepatitis B virus DNA viral levels in the blood (hepatitis B virus [1]; 0.1 mg once daily): 2.25 log
mean log reduction in hepatitis B virus DNA viral levels in the blood (hepatitis B virus [1]; 0.5 mg once daily): 2.81 log
mean log reduction in hepatitis B virus DNA viral levels in the blood (hepatitis B virus [1]; 1.0 mg once daily): 2.42 log
safety / tolerability (hepatitis B virus [2]; all doses (0.01, 0.1, 0.5 mg once daily)): well tolerated
antiviral activity (hepatitis B virus [2]; all three doses (0.01, 0.1, 0.5 mg once daily), adults with chronic hepatitis B): potent antiviral activity
reductions in hepatitis B virus DNA viral levels in blood compared to lamivudine (hepatitis B virus [2]; two higher doses (0.1 mg and 0.5 mg once daily), vs lamivudine 100 mg QD): significantly greater reductions
